Test results: patent US20220265625A1, “COMPOSITIONS AND METHODS USING TRIGONELLINE AND MINERALS FOR PREVENTING OR TREATING CONDITIONS OR DISORDERS IN SKELETAL MUSCLE” (SOCIETE DES PRODUITS NESTLE S.A., priority 2019, published 2022)

Key:
C57BL/6JRj male mice = experiment: Liver NAD+ after oral gavage in mice; format: in vivo; settings: equimolar of 300mg/kg trigonelline, 120 minutes
Description: 10 weeks C57BL/6JRj male mice received trigonelline (sigma #T5509) or fenugreek seed extract enriched in trigonelline (40.45% trigonelline) by oral gavage (equimolar of 300mg/kg trigonelline, n=8/group). After 120 minutes treatment, the liver was harvested and flash frozen in liquid nitrogen. NAD+was measured in liver using an enzymatic method adapted from Dall, M., et al., Mol Cell Endocrinol, 2018. 473: p. 245-256.

Human primary myoblasts = experiment: NAD+ colorimetric quantification in differentiated human primary myoblasts; format: cell-based; settings: 16h, different doses
Description: After one day, the differentiation is induced by a medium change for 4 days. Cells were treated with synthetic trigonelline monohydrate (FIG. 4A) or with Fenugreek seed extract enriched in trigonelline containing 40.45% trigonelline (FIG. 4B) for 16h at difference doses. NAD+was measured using colorimetric NAD+quantification assay (Biovision NAD+/NADH Quantitation Colorimetric Kit #k337-100).

[1] = tested on: Human Skeletal Muscle Myotubes (HSMM); settings: 6h
Description: Human primary myoblasts from two different donors were seeded in 6 well plates at a density of 200′000 cells per well in skeletal muscle growth medium (SKM-M, AMSbio). After one day, the differentiation was induced by a medium change for 4 days using differentiation culture medium
(Gibco No. 31330-028). Cells were treated with isotopically labelled trigonelline (^13C carbonyl; 3^2H on methyl) for 6h.
Cell extracts were separated on a Vanquish UHPLC +focused LC system (Thermo Scientific) with a hydrophilic liquid chromatography (HILIC) iHILIC-Fusion(P) column (Hilicon) carrying the dimensions 150 x 2.1 mm, 5 pm and a guard column (iHILIC-fusion(P), Hilicon) in front. The separation of metabolites was achieved by applying a linear solvent gradient in normal phase at 0.25 mL/min flow rate and 35° C. of temperature. As mobile phase, solvent A was water with 10 mM ammonium acetate and 0.04% (v/v) ammonium hydroxide, pH ˜9.3, and solvent B was acetonitrile.
The eluting metabolites were analyzed with an Orbitrap Fusion Lumos mass spectrometer (Thermo Scientific) with a heated electrospray ionization (H-ESI) source in positive and negative mode at a resolution of 60,000 at m/z of 200. Instrument control and data analysis were conducted using Xcalibur (Thermo Scientific).

C. elegans [2] = settings: 1 mM
Description: C. elegans mobility test was performed using the Movement Tracker software (Mouchiroud, L. et al. Curr Protoc Neurosci 77, 8.37.1-8.37.21 (2016)). The experiments were repeated at least twice. Trigonelline treatment and experimental measurements were started at Day 1 of wild type N2 worm adulthood, in a regimen of chronic exposure till experiments termination.

C. elegans [3] = settings: 1 mM, day 8 and day 11 old worms
Source text: 45 to 60 worms per condition were manually scored for mobility after poking. Worms that were unable to respond to any repeated stimulation were scored as dead. […] Trigonelline treatment and experimental measurements were started at Day 1 of wild type N2 worm adulthood, in a regimen of chronic exposure til experiments termination.

C. elegans [4] = settings: 1mM, chronic exposure from Day 1 adulthood
Description: Worm lifespan tests were performed using about 100 animals per condition and scored manually every other day. Trigonelline treatment and experimental measurements were started at Day 1 of wild type N2 worm adulthood, in a regimen of chronic exposure till experiments termination.

C. elegans [5] = settings: 1mM trigonelline chloride, day 8 old worms
Description: Absolute quantification of the mtDNA copy number in wild type N2 worms was performed by real-time PCR. Relative values for nduo-1, and act-1 were compared within each sample to generate a ratio representing the relative level of mitochondrial DNA per nuclear genome. The average of at least two technical repeats was used for each biological data point. Each experiment was performed on at least ten independent biological samples (individual worms). Trigonelline treatment with 1mM trigonelline chloride and experimental measurements were started at Day 1 of wild type N2 worm adulthood, in a regimen of chronic exposure till experiments termination.

[6] = tested on: RW1596 (myo-3p::GFP) worms; settings: 1mM trigonelline chloride, 11 day old worms
Description: RW1596 (myo-3p::GFP) worms were collected at Day 1 (young adults) and at Day 11 (aged animals) for muscle integrity assessment. Worms were immobilized with tetramisole and analyzed by confocal microscopy, to assess the muscle fibers morphology shown by GFP fluorescence imaging. Trigonelline treatment with 1mM trigonelline chloride and experimental measurements were started at Day 1 of wild type N2 worm adulthood, in a regimen of chronic exposure till experiments termination.

## C[n+]1cccc(C(=O)O)c1.[OH-] [chemically synthesized trigonelline]
C57BL/6JRj male mice
  NAD+ content in the liver compared to the control: significant increase
Human primary myoblasts
  NAD+ content compared to the control: significant increase

## [2H]C([2H])([2H])[n+]1cccc([13C](=O)[O-])c1 [labelled trigonelline, reference compound]
[1]; labelled trigonelline 500pm, vs naturally occurring NAD+ in control
  relative abundance of labelled NAD+(M+1) (FIG. 2B): increase

## C[n+]1cccc(C(=O)O)c1 [trigonelline chloride]
C. elegans [2]; advanced aging phase
  distance travelled during spontaneous mobility assay vs control: significantly increased
C. elegans [2]; from day 1 adulthood
  mean speed during spontaneous mobility assay vs control: increased the mean speed
C. elegans [3]
  stimulated mobility score (worms responsive to a physical stimulus): more responsive to a physical stimulus than the control
C. elegans [4]
  increase in lifespan: 21%

## C[n+]1cccc(C(=O)[O-])c1 [trigonelline, 1-methylpyridin-1-ium-3-carboxylate]
C. elegans [5]
  mitochondrial expression relative to nuclear expression (mt/nDNA, nduo-1/act-1): higher than in the control group
[1]; HSMM from 2 donors, 500pm, LC-MS
  NAD+ relative concentration vs control (FIG. 2A): enhancement
[6]
  myofibrillar structure (GFP-tagged myosin) vs age matched control: improved more organized myofibrillar structure
